In patent US5147875A, “2-(substituted phenyl)-4-oxo-quinazolines” (Sanshin Kogyo Kabishiki Kaisha, priority 1988, dated 1992):

Tests used:
[1] = biological target: calmodulin insensitive cyclic GMP phosphodiesterase; assay: Phosphodiesterase activity: inhibition of calmodulin insensitive cyclic GMP phosphodiesterase; format: biochemical; conditions: procedure of European Patent Application No. 293063; read-out: IC50 (concentration of inhibitor required for 50% inhibition of enzyme activity)
Procedure: The activity of the compounds of the present invention as inhibitors of a calmodulin insensitive cyclic GMP phosphodiesterase was measured using the procedure described in European Patent Application No. 293063. […] The compounds of the present invention have the advantage that they are selective in not inhibiting cyclic AMP phosphodiesterase (type III).

[2] = tested on: U46619-induced broncho-constriction; assay: Bronchodilatation in vivo: U46619-induced bronchoconstriction in anaesthetised guinea-pigs; set-up: species or system guinea-pig; conditions: 10 μmol/kg i.v. bolus; anaesthetised male Dunkin Hartley guinea-pigs; U46619 infused i.v. 2.5 nmol/min
Procedure: Male guinea-pigs of the Dunkin Hartley strain (500-600 g) were anaesthetised with Sagatal (pentobarbital sodium) (60 mg/kg). Airway resistance was measured using a modification of the classical Konzett-Rossler technique (Versuchsanordnung zu Untersuchungen an der Bronchialmuskulatur. Naunyn-Schmiedebergs Arch. Exp. Path. Pharmak., vol 195: pp 71-74, (1940)). U46619 (9,11-methanoepoxy-PGH2) was infused i.v. at a rate of 2.5 nmol/min, this produced a steady state of broncho-constriction (approximately 120% increase from basal airway resistance). The compound under test was administered by i.v. bolus injection, and the subsequent peak inhibition of bronchoconstriction recorded.
Administration of the compound of Example 1 (10 μmol/kg) reduced the U46619-induced broncho-constriction by 34%.

Structure (SMILES)	IC50 [1] [µM]	reduction of U46619-induced broncho-constriction (peak inhibition) [2] [%]
CCCOc1ccccc1-c1nc2ccccc2c(=O)[nH]1 [Example 1, 2-(2-Propoxyphenyl)quinazolin-4(3H)-one]	0.71 to 5.3	34
CCCOc1ccccc1-c1nc2cc(SC)ccc2c(=O)[nH]1 [Example 2, 7-Methylthio-2-(2-propoxyphenyl)quinazolin-4(3H)-one]	0.71 to 5.3	
CCCOc1ccccc1-c1nc2cc([N+](=O)[O-])ccc2c(=O)[nH]1 [Example 3, 7-Nitro-2-(2-Propoxyphenyl)-4(3H)-quinazolinone]	0.71 to 5.3	
CCCOc1ccccc1-c1nc2cc(N)ccc2c(=O)[nH]1 [Example 4, 7-Amino-2-(2-Propoxyphenyl)-4(3H)-quinazolinone]	0.71 to 5.3	
CCCOc1ccccc1-c1nc2cc(NC)ccc2c(=O)[nH]1 [Example 5, 7-Methylamino-2-(2-Propoxyphenyl)-4(3H)-quinazolinone]	0.71 to 5.3	
